Source: ChEMBL document CHEMBL1201862, “PubChem BioAssay data set” (2004)
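Five concentrations, 48 hours, 96-well plates. At the GI50, growth is halved.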 Activity calls are given as the source filed them. Cut-off read from the data, not from the text of the source: active = GI50 up to about 1.1 µM and inactive = higher.

Key:
Test in all cases: NCI anticancer screen, dose series, 48 h
HOP-92 = system: HOP-92
DU-145 = system: DU-145
IGROV-1 = system: IGROV-1
HCT-116 = system: HCT-116
HOP-62 = system: HOP-62
SK-MEL-2 = system: SK-MEL-2
OVCAR-8 = system: OVCAR-8
SNB-19 = system: SNB-19
RXF 393 = system: RXF 393
SNB-75 = system: SNB-75
SK-MEL-28 = system: SK-MEL-28
UACC-257 = system: UACC-257
SF-539 = system: SF-539
SW-620 = system: SW-620
SR = system: SR
T47D = system: T47D
U-251 = system: U-251
UO-31 = system: UO-31
OVCAR-4 = system: OVCAR-4
A498 = system: A498

Measured: GI50

O=C1CCC(Cc2ccc(Cl)cc2Cl)C(=O)N1 (configuration not stated)
inactive: HOP-92 > 100 µM | DU-145 > 100 µM | IGROV-1 > 100 µM | HCT-116 > 100 µM | HOP-62 > 100 µM | SK-MEL-2 > 100 µM | OVCAR-8 > 100 µM | SNB-19 > 100 µM | RXF 393 32 µM | SNB-75 64.6 µM | SK-MEL-28 > 100 µM | UACC-257 > 100 µM | SF-539 > 100 µM | SW-620 > 100 µM | SR > 100 µM | T47D 80.4 µM | U-251 > 100 µM | UO-31 83.6 µM | OVCAR-4 > 100 µM

CNC(=S)/C(=N\Nc1[nH]cnc1C(N)=O)C(N)=S
active: SK-MEL-2 0.875 µM | OVCAR-8 1.11 µM | SR < 0.01 µM
inactive: HOP-92 3 µM | DU-145 1.2 µM | IGROV-1 3.56 µM | HCT-116 3.52 µM | HOP-62 19.2 µM | SNB-19 45.3 µM | RXF 393 > 100 µM | SNB-75 6.82 µM | SK-MEL-28 69.7 µM | UACC-257 9.62 µM | SF-539 5.21 µM | SW-620 3.78 µM | T47D 11.6 µM | U-251 30.3 µM | UO-31 1.61 µM | OVCAR-4 4.17 µM

CCOC(=O)NC(Nc1ccc(S(=O)(=O)Nc2ncccn2)cc1)(C(=O)OCC)C(F)(F)F (configuration not stated)
inactive: HOP-92 > 100 µM | DU-145 > 100 µM | IGROV-1 > 100 µM | HCT-116 > 100 µM | HOP-62 > 100 µM | SK-MEL-2 > 100 µM | OVCAR-8 > 100 µM | SNB-19 > 100 µM | SNB-75 > 100 µM | SK-MEL-28 > 100 µM | UACC-257 > 100 µM | SF-539 > 100 µM | SW-620 > 100 µM | SR > 100 µM | T47D > 100 µM | U-251 > 100 µM | UO-31 > 100 µM | OVCAR-4 > 100 µM

Cc1nc2c(Br)cc(Br)cc2c(=O)n1-c1ccccc1NC1OC(CO)C(O)C(O)C1O (configuration not stated)
inactive: HOP-92 > 100 µM | DU-145 > 100 µM | IGROV-1 > 100 µM | A498 > 100 µM | HCT-116 > 100 µM | HOP-62 > 100 µM | SK-MEL-2 > 100 µM | OVCAR-8 > 100 µM | SNB-19 > 100 µM | RXF 393 > 100 µM | SNB-75 61.1 µM | SK-MEL-28 > 100 µM | UACC-257 > 100 µM | SF-539 > 100 µM | SW-620 > 100 µM | T47D > 100 µM | U-251 > 100 µM | UO-31 > 100 µM | OVCAR-4 > 100 µM

Cc1ccc(NC(=S)NNC(=O)c2cc(-c3ccccc3)nc3ccccc23)cc1
inactive: HOP-92 11.8 µM | DU-145 12.9 µM | IGROV-1 15.2 µM | HCT-116 8.59 µM | HOP-62 13.2 µM | SK-MEL-2 10.3 µM | OVCAR-8 18.3 µM | SNB-19 16.7 µM | RXF 393 12.8 µM | SNB-75 12.2 µM | SK-MEL-28 5.96 µM | UACC-257 14.4 µM | SF-539 15.7 µM | SW-620 10.4 µM | SR 3.18 µM | T47D 3.21 µM | U-251 5.68 µM | UO-31 12.7 µM | OVCAR-4 17.9 µM

C=CC(C)(O)CCC1C(=C)C(O)CC2C(C)(C)CCCC12C (configuration not stated)
inactive: HOP-92 17.3 µM | DU-145 18.2 µM | IGROV-1 24.3 µM | A498 18.3 µM | HCT-116 17.9 µM | HOP-62 20.6 µM | SK-MEL-2 16.3 µM | OVCAR-8 26.1 µM | SNB-19 18.1 µM | RXF 393 14.3 µM | SNB-75 48.3 µM | SK-MEL-28 18.7 µM | UACC-257 19 µM | SF-539 17.9 µM | SW-620 20.7 µM | T47D 23.5 µM | U-251 15.5 µM | UO-31 15.2 µM | OVCAR-4 20.5 µM

Cc1cc(=O)oc2c(CNC(Cc3ccccc3)C(=O)O)c(O)ccc12 (configuration not stated)
inactive: HOP-92 > 100 µM | DU-145 > 100 µM | IGROV-1 > 100 µM | HCT-116 > 100 µM | HOP-62 > 100 µM | SK-MEL-2 > 100 µM | OVCAR-8 > 100 µM | SNB-19 > 100 µM | RXF 393 > 100 µM | SNB-75 82.2 µM | SK-MEL-28 > 100 µM | UACC-257 > 100 µM | SF-539 > 100 µM | SW-620 > 100 µM | SR > 100 µM | T47D > 100 µM | U-251 > 100 µM | UO-31 73.3 µM | OVCAR-4 > 100 µM

CN(C)CCNC1=CC(=O)c2c(O)ccc(O)c2C1=O
inactive: HOP-92 14.2 µM | DU-145 13.8 µM | IGROV-1 6.17 µM | A498 14.8 µM | HCT-116 2.8 µM | HOP-62 16.3 µM | SK-MEL-2 8.95 µM | OVCAR-8 4.39 µM | SNB-19 16 µM | RXF 393 14.2 µM | SNB-75 17.1 µM | SK-MEL-28 12.2 µM | UACC-257 2.36 µM | SF-539 7.1 µM | SW-620 3.3 µM | T47D 9.66 µM | U-251 11.9 µM | UO-31 12.4 µM | OVCAR-4 4.54 µM

O=C(CC(C(=O)c1ccsc1)c1cccs1)c1ccsc1 (configuration not stated)
inactive: DU-145 75.7 µM | IGROV-1 > 100 µM | A498 81.8 µM | HOP-62 > 100 µM | SK-MEL-2 94 µM | OVCAR-8 60.5 µM | SNB-19 > 100 µM | SNB-75 27.4 µM | SK-MEL-28 76.2 µM | UACC-257 51.4 µM | SW-620 > 100 µM | SR 27.4 µM | T47D 21.4 µM | U-251 > 100 µM | UO-31 25.8 µM | OVCAR-4 73.5 µM

COc1ccc2c(c1)nc1n2C(c2c(F)cccc2Cl)SC1 (configuration not stated)
inactive: HOP-92 > 37.3 µM | DU-145 1.49 µM | IGROV-1 6.17 µM | A498 5.89 µM | HCT-116 4.14 µM | OVCAR-8 3.92 µM | SNB-75 1.68 µM | SK-MEL-28 5 µM | UACC-257 18.2 µM | SF-539 3.25 µM | T47D 3.32 µM | U-251 5.08 µM | UO-31 > 20.2 µM

CCOC(=O)c1sc2c(c1OC(=O)c1cc(OC)c(OC)c(OC)c1)c(=O)n(-c1ccccc1)c(=S)n2-c1ccccc1
inactive: HOP-92 22.2 µM | DU-145 > 100 µM | IGROV-1 > 100 µM | A498 > 100 µM | HCT-116 > 100 µM | HOP-62 > 100 µM | OVCAR-8 74.8 µM | SNB-19 > 100 µM | RXF 393 > 100 µM | SNB-75 > 100 µM | SK-MEL-28 > 100 µM | UACC-257 > 100 µM | SF-539 > 100 µM | SW-620 > 100 µM | T47D 41.6 µM | U-251 49.8 µM | OVCAR-4 70.8 µM

NCS(=O)(=O)O
active: SF-539 0.0361 µM
inactive: HOP-92 > 100 µM | DU-145 > 100 µM | IGROV-1 > 100 µM | A498 > 100 µM | HCT-116 > 100 µM | HOP-62 > 100 µM | SK-MEL-2 > 100 µM | OVCAR-8 > 100 µM | SNB-19 > 100 µM | RXF 393 > 100 µM | SNB-75 > 100 µM | SK-MEL-28 > 100 µM | UACC-257 > 100 µM | SW-620 > 100 µM | T47D > 100 µM | U-251 > 100 µM | UO-31 > 100 µM | OVCAR-4 83.4 µM

CN(COC(=O)c1ccccc1)c1nc(N(C)COC(=O)c2ccccc2)nc(N(C)COC(=O)c2ccccc2)n1
inactive: HOP-92 13.1 µM | DU-145 > 100 µM | IGROV-1 28.8 µM | HCT-116 44.5 µM | HOP-62 14.7 µM | OVCAR-8 39.4 µM | SNB-19 16.5 µM | RXF 393 7.83 µM | SNB-75 > 94.6 µM | SK-MEL-28 > 100 µM | UACC-257 > 91.4 µM | SF-539 12.2 µM | SW-620 > 100 µM | SR > 100 µM | T47D 28.8 µM | U-251 20.2 µM | UO-31 > 83.9 µM | OVCAR-4 47.5 µM

Cc1sc(NC=C2C(=O)CC(C)(C)CC2=O)nc1-c1ccccc1
inactive: HOP-92 > 100 µM | DU-145 > 100 µM | IGROV-1 > 100 µM | HCT-116 > 100 µM | HOP-62 > 100 µM | SK-MEL-2 > 100 µM | OVCAR-8 > 100 µM | SNB-19 > 100 µM | RXF 393 > 100 µM | SNB-75 > 100 µM | SK-MEL-28 > 100 µM | UACC-257 > 100 µM | SF-539 > 100 µM | SW-620 > 100 µM | SR > 100 µM | T47D > 100 µM | U-251 > 100 µM | UO-31 > 100 µM | OVCAR-4 > 100 µM

CSC(=S)NN=C1CCCCC1
inactive: HOP-92 > 100 µM | DU-145 27.4 µM | IGROV-1 12.7 µM | A498 > 100 µM | HCT-116 27.2 µM | HOP-62 47.3 µM | SK-MEL-2 52.6 µM | OVCAR-8 8.93 µM | SNB-19 96.6 µM | RXF 393 > 100 µM | SNB-75 50.6 µM | SK-MEL-28 37.8 µM | UACC-257 33.9 µM | SF-539 24.4 µM | SW-620 48.2 µM | T47D 55.1 µM | U-251 29.1 µM | UO-31 > 100 µM | OVCAR-4 34.3 µM
